Assay results reported in PubChem BioAssay AID2060485 (Molecular Pharmacology Branch, DTP, NCI, 2025).

Tested on: A375 multi-cell spheroids with HUVEC/MSC, viability
Test: Anticancer human tumor A375 cell line growth inhibition [GQUAD];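 further: spheroids exposed to compounds for seven days before readout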
Conditions: for IC50: curve of first compound; for viability, T/C: stronger effect = lower value
Text: DNA G-quadruplex Stabilizer Agents in Combinations in Complex Spheroids
A high-throughput screen of multi-cell type tumor spheroids was designed to identify active combinations of DNA G-quadruplex stabilizer agents and targeted small molecules. Complex spheroids include a stromal component modeled by human endothelial cells (HUVEC) and fibroblasts modeled by human mesenchymal stem cells (MSCs). The concentration ranges selected for each drug and investigational agent were based upon clinically achievable concentrations if the clinical Cmax of the agent was known.
Compounds. The drugs and investigational agents: pidnarulex (CX-5461; NSC782164), APTO-253 (NSC789042), BRACO-19 (NSC847499), peposertib (NSC802822), ceralasertib (NSC780249), elimusertib (NSC800525), camonsertib (NSC841442), AZD-1390 (NSC803789), olaparib (NSC753686), talazoparib (NSC767125), ART-558 (NSC835418), sotorasib (NSC818433), MRTX-1133 (NSC836407), SN-38 (NSC673596), topotecan (NSC609699), etoposide (NSC141540), doxorubicin (NSC123127), gemcitabine (NSC613327), 5-fluorouracil (NSC19893), paclitaxel (NSC125973), vemurafenib (NSC761431), panobinostat (NSC761190), R-306465 (JNJ-16241199; NSC773264), adavosertib (NSC754352), TP-3654 (NSC805149), carboplatin (NSC241240), KSQ-4279 (NSC840948), and staurosporine (NSC755774) were obtained from the National Cancer Institute (NCI) Developmental Therapeutics Program Chemical Repository (34). The FDA-approved anticancer drug set is available from the NCI Developmental Therapeutics Program. […] The stock solutions were prepared in dimethyl sulfoxide (DMSO, Sigma-Aldrich, St. Louis, MO, cat. D2650) at 800-fold the tested concentration and stored at -70 degrees C prior to their use. All drugs and investigational agents were tested over a range starting from a high concentration at or near the clinical Cmax and decreasing in half-log increments. If the clinical Cmax for an agent had not been determined, the highest concentration tested was 10 microM.
2.3 Cell Culture. All cells were maintained in an incubator at 37 degrees C and 5% CO2 with 95% humidity. The PDC lines were cultured according to standard operating procedures established by the NCI PDMR. All PDCs were thawed and cultured in Matrigel-coated flasks prepared with a working solution of 1X Ham's F-12 nutrient mix, without supplementation (Invitrogen, cat. 11765054), 100 U/mL penicillin-streptomycin (Invitrogen, cat. 15140122), and 2.5% Matrigel (Corning Inc., cat. 354248) for the first three passages. The 857933-349-R-J2-PDC line was cultured in 6C/Colon 1B media, which includes advanced DMEM/F-12 (Thermo Fisher Scientific, cat. 12634028), 10 mM HEPES (Thermo Fisher Scientific, cat. 15630080), 1X GlutaMAX supplement (Thermo Fisher Scientific, cat. 35050061), 0.1 mg/mL primocin (InvivoGen, cat. ant-pm-2), 10% defined fetal bovine serum, heat inactivated (HyClone Laboratories Inc., cat. SH30070.03HI), 50% L-WRN conditioned media (ATCC, cat. CRL-3276), 1.25 mM N-Acetyl-L-cysteine (Sigma-Aldrich, cat. A9165), 10 mM nicotinamide (Sigma-Aldrich, cat. N0636), 1X B-27 supplement (Thermo Fisher Scientific, cat. 17504044), 1X N-2 supplement (Thermo Fisher Scientific, cat. 17502048), 10 microM Y-27632 dihydrochloride (Tocris Bioscience, cat. 1254), and 50 ng/mL human EGF recombinant protein (Thermo Fisher Scientific, cat. PHG0311). The 485176-168-R4-J1-PDC line was cultured in Panc media, which includes all 6C/Colon 1B media components plus 100 ng/mL human FGF-10 (Thermo Fisher Scientific, cat. 100-26), 500 nM SB-431542 (Selleckchem, cat. S1067), and gastrin (Tocris, cat. 3006).
[…]

For `COc1cc(C2c3cc4c(cc3C(OC3OC5COC(C)OC5C(O)C3O)C3COC(=O)C23)OCO4)cc(OC)c1O` (configuration not stated) + Cc1[nH]c2ccc(F)cc2c1-c1nc2c3cccnc3c3ncccc3c2[nH]1, which IC50 (second compound 0.0316 µM) is on record?
The IC50 was 1630 nM.

What about the IC50 (second compound 0.1 µM) of the same compound?
Its IC50 is 1010 nM.

What about the IC50 (second compound 0.316 µM) of the same compound?
The IC50 was 1840 nM.

What about the IC50 (second compound 1 µM) of the same compound?
Its IC50 is 1810 nM.

What about the IC50 (second compound 3.16 µM) of the same compound?
Its IC50 is 1300 nM.

What about the IC50 (second compound 10 µM) of the same compound?
Its IC50 is 969 nM.

And the viability, T/C (second compound 0.0316 µM, first compound 0.0316 µM)?
The viability, T/C was 109%.

And the viability, T/C (second compound 0.0316 µM, first compound 0.1 µM)?
The viability, T/C was 109%.

And the viability, T/C (second compound 0.0316 µM, first compound 0.316 µM)?
The viability, T/C was 97.6%.

What about the viability, T/C (second compound 0.0316 µM, first compound 1 µM) of the same compound?
The viability, T/C was 59.6%.

What about the viability, T/C (second compound 0.0316 µM, first compound 3.16 µM) of the same compound?
The viability, T/C was 37.6%.

What about the viability, T/C (second compound 0.0316 µM, first compound 10 µM) of the same compound?
The viability, T/C was 26.9%.

What about the viability, T/C (second compound 0.1 µM, first compound 0.0316 µM) of the same compound?
The viability, T/C was 97.7%.

And the viability, T/C (second compound 0.1 µM, first compound 0.1 µM)?
Its viability, T/C is 134%.

And the viability, T/C (second compound 0.1 µM, first compound 0.316 µM)?
The viability, T/C was 94.8%.

What about the viability, T/C (second compound 0.1 µM, first compound 1 µM) of the same compound?
Its viability, T/C is 51.5%.

What about the viability, T/C (second compound 0.1 µM, first compound 3.16 µM) of the same compound?
The viability, T/C was 33.1%.

What about the viability, T/C (second compound 0.1 µM, first compound 10 µM) of the same compound?
The viability, T/C was 27.7%.

And the viability, T/C (second compound 0.316 µM, first compound 0.0316 µM)?
Its viability, T/C is 101%.

And the viability, T/C (second compound 0.316 µM, first compound 0.1 µM)?
Its viability, T/C is 156%.

What about the viability, T/C (second compound 0.316 µM, first compound 0.316 µM) of the same compound?
The viability, T/C was 89.2%.

And the viability, T/C (second compound 0.316 µM, first compound 1 µM)?
Its viability, T/C is 68.2%.

And the viability, T/C (second compound 0.316 µM, first compound 3.16 µM)?
The viability, T/C was 40.2%.

And the viability, T/C (second compound 0.316 µM, first compound 10 µM)?
Its viability, T/C is 26%.

And the viability, T/C (second compound 1 µM, first compound 0.0316 µM)?
The viability, T/C was 109%.

What about the viability, T/C (second compound 1 µM, first compound 0.1 µM) of the same compound?
Its viability, T/C is 130%.

What about the viability, T/C (second compound 1 µM, first compound 0.316 µM) of the same compound?
Its viability, T/C is 89.7%.

And the viability, T/C (second compound 1 µM, first compound 1 µM)?
Its viability, T/C is 62.5%.

And the viability, T/C (second compound 1 µM, first compound 3.16 µM)?
Its viability, T/C is 43.2%.

And the viability, T/C (second compound 1 µM, first compound 10 µM)?
Its viability, T/C is 29%.

And the viability, T/C (second compound 3.16 µM, first compound 0.0316 µM)?
The viability, T/C was 69%.

What about the viability, T/C (second compound 3.16 µM, first compound 0.1 µM) of the same compound?
Its viability, T/C is 86.6%.

And the viability, T/C (second compound 3.16 µM, first compound 0.316 µM)?
Its viability, T/C is 69.8%.

What about the viability, T/C (second compound 3.16 µM, first compound 1 µM) of the same compound?
The viability, T/C was 51.6%.

And the viability, T/C (second compound 3.16 µM, first compound 3.16 µM)?
The viability, T/C was 40.2%.

And the viability, T/C (second compound 3.16 µM, first compound 10 µM)?
Its viability, T/C is 27.8%.

What about the viability, T/C (second compound 10 µM, first compound 0.0316 µM) of the same compound?
The viability, T/C was 78.9%.

What about the viability, T/C (second compound 10 µM, first compound 0.1 µM) of the same compound?
Its viability, T/C is 87.4%.

And the viability, T/C (second compound 10 µM, first compound 0.316 µM)?
Its viability, T/C is 76.1%.

What about the viability, T/C (second compound 10 µM, first compound 1 µM) of the same compound?
Its viability, T/C is 48.2%.

And the viability, T/C (second compound 10 µM, first compound 3.16 µM)?
The viability, T/C was 34.4%.

What about the viability, T/C (second compound 10 µM, first compound 10 µM) of the same compound?
Its viability, T/C is 25.6%.
